In patent US20170233413A1, “SUBSTITUTED ANNULATED PYRIMIDINES AND USE THEREOF” (Bayer Pharma Aktiengesellschaft, priority 2014, published 2017):

Assays:
[1] = target: T1, human phosphodiesterase 5 (PDE 5) (Homo sapiens, UniProt O76074); experiment: Inhibition of human phosphodiesterase 5 (PDE 5); format: biochemical; conditions: PDE 5 preparation from human platelets; in some cases means of individual determinations
T1 construct: PDE 5 preparations are obtained from human platelets by disruption; from tissue; host or cells: human platelets
Procedure: B-3. Inhibition of Human Phosphodiesterase 5 (PDE 5)
PDE 5 preparations are obtained from human platelets by disruption (Microfluidizer®, 800 bar, 3 passes), followed by centrifugation (75 000 g, 60 min, 4° C.) and ion exchange chromatography of the supernatant on a Mono Q 10/10 column (linear sodium chloride gradient, elution with a 0.2-0.3M solution of sodium chloride in buffer (20 mM Hepes pH 7.2, 2 mM magnesium chloride). Fractions having PDE 5 activity are combined (PDE 5 preparation) and stored at −80° C.
To determine their in vitro action on human PDE 5, the test substances are dissolved in 100% DMSO and serially diluted. Typically, dilution series (1:3) from 200 μM to 0.091 μM are prepared (resulting final concentrations in the test: 4 μM to 0.0018 μM). In each case 2 μl of the diluted substance solutions are placed into the wells of microtitre plates (Isoplate-96/200W; Perkin Elmer). Subsequently, 50 μl of a dilution of the above-described PDE 5 preparation are added. The dilution of the PDE 5 preparation is chosen such that during the later incubation less than 70% of the substrate are converted (typical dilution: 1:100; dilution buffer: 50 mM tris/hydrochloric acid pH 7.5, 8.3 mM magnesium chloride, 1.7 mM EDTA, 0.2% BSA). The substrate, [8-^3H] cyclic guanosine-3′,5′-monophosphate (1 μCi/μl; Perkin Elmer), is diluted 1:2000 with assay buffer (50 mM tris/hydrochloric acid pH 7.5, 8.3 mM magnesium chloride, 1.7 mM EDTA) to a concentration of 0.0005 μCi/μl. By addition of 50 μl (0.025 μCi) of the diluted substrate, the enzyme reaction is finally started. The test mixtures are incubated at room temperature for 60 min and the reaction is stopped by adding 25 μl of a suspension of 18 mg/ml yttrium scintillation proximity beads in water (phosphodiesterase beads for SPA assays, RPNQ 0150, Perkin Elmer). The microtitre plates are sealed with a film and left to stand at room temperature for 60 min. Subsequently, the plates are analysed for 30 s per well in a Microbeta scintillation counter (Perkin Elmer). IC50 values are determined using the graphic plot of the substance concentration against percentage PDE 5 inhibition.

[2] = target: T2, recombinant guanylate cyclase reporter cell line (Rattus norvegicus, UniProt P19686+P20595); experiment: Effect on a recombinant guanylate cyclase reporter cell line; format: cell-based; conditions: MEC = minimum effective concentration; in some cases means of individual determinations
T2 construct: expressed in transfected cells
T2 sequence (P19686 1-690): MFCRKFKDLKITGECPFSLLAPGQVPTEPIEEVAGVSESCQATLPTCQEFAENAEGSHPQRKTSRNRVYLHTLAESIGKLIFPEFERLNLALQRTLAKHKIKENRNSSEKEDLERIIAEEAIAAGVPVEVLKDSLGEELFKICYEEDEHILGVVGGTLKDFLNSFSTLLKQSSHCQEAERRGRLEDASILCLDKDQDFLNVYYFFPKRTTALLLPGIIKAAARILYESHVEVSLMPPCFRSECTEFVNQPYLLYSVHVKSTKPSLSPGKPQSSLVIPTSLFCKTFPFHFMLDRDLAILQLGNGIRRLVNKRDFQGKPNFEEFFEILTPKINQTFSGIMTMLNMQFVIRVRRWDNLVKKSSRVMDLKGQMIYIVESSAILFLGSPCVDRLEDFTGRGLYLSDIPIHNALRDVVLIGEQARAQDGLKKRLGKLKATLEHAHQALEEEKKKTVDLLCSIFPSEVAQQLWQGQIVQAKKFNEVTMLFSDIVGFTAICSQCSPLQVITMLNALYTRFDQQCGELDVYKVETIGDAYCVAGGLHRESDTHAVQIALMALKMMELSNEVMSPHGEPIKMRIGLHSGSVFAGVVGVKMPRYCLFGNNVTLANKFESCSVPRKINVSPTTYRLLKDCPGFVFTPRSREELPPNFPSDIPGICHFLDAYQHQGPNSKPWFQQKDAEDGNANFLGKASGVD
T2 sequence (P20595 1-619): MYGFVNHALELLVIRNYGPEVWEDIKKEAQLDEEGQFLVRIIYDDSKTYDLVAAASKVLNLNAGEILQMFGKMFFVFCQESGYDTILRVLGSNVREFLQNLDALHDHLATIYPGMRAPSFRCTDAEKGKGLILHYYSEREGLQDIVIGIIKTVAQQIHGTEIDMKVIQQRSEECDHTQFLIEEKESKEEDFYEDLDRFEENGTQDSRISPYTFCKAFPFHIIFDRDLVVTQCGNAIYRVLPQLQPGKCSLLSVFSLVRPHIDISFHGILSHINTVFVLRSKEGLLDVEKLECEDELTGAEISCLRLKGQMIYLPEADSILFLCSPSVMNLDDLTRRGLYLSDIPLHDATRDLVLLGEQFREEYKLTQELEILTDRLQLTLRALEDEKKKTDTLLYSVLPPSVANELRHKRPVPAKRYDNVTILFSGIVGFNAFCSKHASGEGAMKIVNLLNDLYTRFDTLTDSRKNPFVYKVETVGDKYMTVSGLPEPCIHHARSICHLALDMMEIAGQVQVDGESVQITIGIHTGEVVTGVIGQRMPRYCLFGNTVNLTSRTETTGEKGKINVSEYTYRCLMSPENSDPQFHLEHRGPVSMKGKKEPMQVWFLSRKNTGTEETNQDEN
Procedure: B-2. Effect on a Recombinant Guanylate Cyclase Reporter Cell Line
The cellular activity of the compounds of the invention is determined using a recombinant guanylate cyclase reporter cell line, as described in F. Wunder et al., Anal. Biochem. 2005, 339, 104-112. Representative values (MEC=minimum effective concentration) for the compounds of the invention are shown in the table below (Table 1B; in some cases as means of individual determinations): […]

IC50 [1] [nM]	MEC [2] [µM]	Structure (SMILES)
190	3	CC(N)(CNC(=O)c1nc(-c2nn(Cc3ncccc3F)c3ncc(F)cc23)nc2c1C(C)(C)C(=O)N2)CC(F)F (single isomer, unassigned; enantiomer a) [Example 55, ent-N-(2-Amino-4,4-difluoro-2-methylbutyl)-2-{5-fluoro-1-[(3-fluoropyridin-2-yl)methyl]-1H-pyrazolo[3,4-b]pyridin-3-yl}-5,5-dimethyl-6-oxo-6,7-dihydro-5H-pyrrolo[2,3-d]pyrimidine-4-carboxamide (enantiomer A)]
16	0.1	COCCNC(=O)c1nc(-c2nn(Cc3ccccc3F)c3ncccc23)nc2c1C(C)(C)C(=O)N2 [Example 127, 2-[1-(2-fluorobenzyl)-1H-pyrazolo[3,4-b]pyridin-3-yl]-N-(2-methoxyethyl)-5,5-dimethyl-6-oxo-6,7-dihydro-5H-pyrrolo[2,3-d]pyrimidine-4-carboxamide]
26	0.1	CCOCCCNC(=O)c1nc(-c2nn(Cc3ccccc3F)c3ncccc23)nc2c1C(C)(C)C(=O)N2 [Example 123, N-(3-ethoxypropyl)-2-[1-(2-fluorobenzyl)-1H-pyrazolo[3,4-b]pyridin-3-yl]-5,5-dimethyl-6-oxo-6,7-dihydro-5H-pyrrolo[2,3-d]pyrimidine-4-carboxamide]
1100	0.1	CC1(C)C(=O)Nc2nc(-c3nn(Cc4ccccc4F)c4cc(Cl)ccc34)nc(C(=O)N3CCCC3)c21 [Example 48]
30	1	CC(C)C(C)NC(=O)c1nc(-c2nn(Cc3ccccc3F)c3ncccc23)nc2c1C(C)(C)C(=O)N2 (racemic) [Example 133, rac-2-[1-(2-fluorobenzyl)-1H-pyrazolo[3,4-b]pyridin-3-yl]-5,5-dimethyl-N-(3-methylbutan-2-yl)-6-oxo-6,7-dihydro-5H-pyrrolo[2,3-d]pyrimidine-4-carboxamide]
38	0.1	CC(C)=CCNC(=O)c1nc(-c2nn(Cc3ccccc3F)c3ncccc23)nc2c1C(C)(C)C(=O)N2 [Example 85, 2-[1-(2-fluorobenzyl)-1H-pyrazolo[3,4-b]pyridin-3-yl]-5,5-dimethyl-N-(3-methylbut-2-en-1-yl)-6-oxo-6,7-dihydro-5H-pyrrolo[2,3-d]pyrimidine-4-carboxamide]
220	10	Cc1nc2c(cc1F)c(-c1nc3c(c(C(N)=O)n1)C(C)(C(F)(F)F)C(=O)N3)nn2Cc1ncccc1F (single isomer, unassigned; ent-2) [Example 19, ent-2-{5-Fluoro-1-[(3-fluoropyridin-2-yl)methyl]-6-methyl-1H-pyrazolo[3,4-b]pyridin-3-yl}-5-methyl-6-oxo-5-(trifluoromethyl)-6,7-dihydro-5H-pyrrolo[2,3-d]pyrimidine-4-carboxamide (enantiomer A)]
730	0.03	CN(CC1CC1)C(=O)c1nc(-c2nn(Cc3ccccc3F)c3cc(Cl)ccc23)nc2c1C(C)(C)C(=O)N2 [Example 47]
130	0.03	Cc1nc2c(cc1F)c(-c1nc3c(c(C(N)=O)n1)C(C)(C(F)(F)F)C(=O)N3)nn2Cc1ccccc1F (single isomer, unassigned; ent-2) [Example 14, ent-2-[5-fluoro-1-(2-fluorobenzyl)-6-methyl-1H-pyrazolo[3,4-b]pyridin-3-yl]-5-methyl-6-oxo-5-(trifluoromethyl)-6,7-dihydro-5H-pyrrolo[2,3-d]pyrimidine-4-carboxamide (enantiomer B)]
55	0.1	CC1(C)C(=O)Nc2nc(-c3nn(Cc4ccccc4F)c4ncccc34)nc(C(=O)Nc3nncs3)c21 [Example 93, 2-[1-(2-fluorobenzyl)-1H-pyrazolo[3,4-b]pyridin-3-yl]-5,5-dimethyl-6-oxo-N-(1,3,4-thiadiazol-2-yl)-6,7-dihydro-5H-pyrrolo[2,3-d]pyrimidine-4-carboxamide]
31	0.3	CC1(C)C(=O)Nc2nc(-c3nn(Cc4ccccc4F)c4ncccc34)nc(C(=O)NCC3CCOC3)c21 (racemic) [Example 99, rac-2-[1-(2-fluorobenzyl)-1H-pyrazolo[3,4-b]pyridin-3-yl]-5,5-dimethyl-6-oxo-N-(tetrahydrofuran-3-ylmethyl)-6,7-dihydro-5H-pyrrolo[2,3-d]pyrimidine-4-carboxamide]
3.5	0.1	CC1(C)C(=O)Nc2nc(-c3nn(Cc4ccccc4F)c4ncccc34)nc(C(=O)NC3CC3)c21 [Example 24, N-Cyclopropyl-2-[1-(2-fluorobenzyl)-1H-pyrazolo[3,4-b]pyridin-3-yl]-5,5-dimethyl-6-oxo-6,7-dihydro-5H-pyrrolo[2,3-d]pyrimidine-4-carboxamide]
6.8	1	CC1(C)C(=O)Nc2nc(-c3nn(Cc4ccccc4F)c4ncccc34)nc(C(=O)NC3CCOC3)c21 (racemic) [Example 65, rac-2-[1-(2-fluorobenzyl)-1H-pyrazolo[3,4-b]pyridin-3-yl]-5,5-dimethyl-6-oxo-N-(tetrahydrofuran-3-yl)-6,7-dihydro-5H-pyrrolo[2,3-d]pyrimidine-4-carboxamide]
110	0.1	CN(CC1CC1)C(=O)c1nc(-c2nn(Cc3ncccc3F)c3ncc(F)cc23)nc2c1C(C)(C)C(=O)N2 [Example 33]
2	0.3	CC(C)(O)CNC(=O)c1nc(-c2nn(Cc3ccccc3F)c3ncccc23)nc2c1C(C)(C)C(=O)N2 [Example 25]
93	0.03	CC(C)N(C)C(=O)c1nc(-c2nn(Cc3ccccc3F)c3ncccc23)nc2c1C(C)(C)C(=O)N2 [Example 112, 2-[1-(2-fluorobenzyl)-1H-pyrazolo[3,4-b]pyridin-3-yl]-N,5,5-trimethyl-6-oxo-N-(propan-2-yl)-6,7-dihydro-5H-pyrrolo[2,3-d]pyrimidine-4-carboxamide]
